Assay [1] addresses T1, ERK5 (Homo sapiens, UniProt Q13164).
Target sequence in this assay (Q13164 whole entry): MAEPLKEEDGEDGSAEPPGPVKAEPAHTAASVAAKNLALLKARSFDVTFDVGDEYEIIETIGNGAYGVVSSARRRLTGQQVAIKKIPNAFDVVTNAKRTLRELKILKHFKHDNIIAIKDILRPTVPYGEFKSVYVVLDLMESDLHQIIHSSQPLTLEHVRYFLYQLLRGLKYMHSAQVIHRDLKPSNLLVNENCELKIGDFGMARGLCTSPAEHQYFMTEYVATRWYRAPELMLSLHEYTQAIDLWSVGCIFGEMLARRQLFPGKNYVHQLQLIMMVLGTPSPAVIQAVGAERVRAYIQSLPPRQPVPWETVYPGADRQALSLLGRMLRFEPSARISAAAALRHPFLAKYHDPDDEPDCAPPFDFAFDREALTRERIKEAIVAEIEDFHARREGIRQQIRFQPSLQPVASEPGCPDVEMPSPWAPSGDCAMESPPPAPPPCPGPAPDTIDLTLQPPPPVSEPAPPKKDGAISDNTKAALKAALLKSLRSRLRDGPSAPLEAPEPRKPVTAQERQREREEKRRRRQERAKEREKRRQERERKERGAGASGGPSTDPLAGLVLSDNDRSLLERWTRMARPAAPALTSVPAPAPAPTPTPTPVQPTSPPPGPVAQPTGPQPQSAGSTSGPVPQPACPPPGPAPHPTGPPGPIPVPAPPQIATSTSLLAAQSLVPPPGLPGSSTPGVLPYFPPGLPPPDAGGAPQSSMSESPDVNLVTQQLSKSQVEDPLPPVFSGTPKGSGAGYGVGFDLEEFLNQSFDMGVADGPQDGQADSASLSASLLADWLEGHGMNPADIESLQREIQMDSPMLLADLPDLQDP
Description: (§1) Two assays were performed to assess the ERK5 inhibitory activity of compounds of the Examples, a cell-based assay and a cell-free biochemical assay.
(§2) The renal cancer cell line SN12C was transduced by a lentivirus pGreenFire1 MEF2 EF1 Neo (ref TR030VA-N) from SBI using standard infection protocol. pGreenFire1 MEF2 EF1 Neo allows the expression of luciferase gene under the control of minimal promoter with MEF2 transcriptional response elements. Cells harboring the reporter construct were selected by geneticin treatment. The selected cells were then transposed by a piggyback based plasmid pCM4007 allowing the expression of constitutively activated MEK5DD under control of TREG3 promoter, a doxycycline regulated promoter. Transposed cells were selected by puromycin treatment. Upon doxycycline treatment (1 μg/ml) MEK5DD was expressed. MEK5DD activates ERK5 that phosphorylates MEF2C protein. Activated MEF2C protein can bind to its transcriptional response elements. Then the luciferase is expressed. In a 96-well plate (96F nuncleon ref137101 thermofisher), 50,000 cells were inoculated in 142.5 μl of RPMI medium containing 10% fetal calf serum, 1% glutamine, and 1 μg/ml doxycycline. […] The luciferase activity was measured using the Kit Bright Glo Luminescent Cell Assay Cat E2610 (Promega) according to the manufacturer's protocol. Luminescence was determined using 0.2 second reading/well using a Tecan SPARK. IC50 values were calculated using XLFIT5 for Microsoft Excel using method 205.
In assay [2] the target is T1, ERK5. Kind of assay: biochemical.
Target sequence in this assay (Q13164 55-347 limits assumed): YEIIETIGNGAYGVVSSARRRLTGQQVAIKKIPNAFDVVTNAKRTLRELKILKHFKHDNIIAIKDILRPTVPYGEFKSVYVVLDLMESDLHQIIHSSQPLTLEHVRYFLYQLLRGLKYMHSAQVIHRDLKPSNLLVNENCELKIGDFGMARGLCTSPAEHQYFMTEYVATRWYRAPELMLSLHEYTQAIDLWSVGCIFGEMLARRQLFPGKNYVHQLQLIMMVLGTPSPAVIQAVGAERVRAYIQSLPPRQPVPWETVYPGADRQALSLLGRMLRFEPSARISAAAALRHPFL
Description: as §1
(§3) An assay was performed to measure the capacity of each compound to inhibit ERK5 enzymatic activity. Compound potency was evaluated by Time-Resolved Forster Resonance Energy Transfer (FRET system). […] A mixture of 1 mM ATP and 1 μM biotinylated synthetic peptide was added (Biosyntan GmbH). This synthetic peptide represents amino acids 30-52 of Eukaryotic translation initiation factor 4E-binding protein 1 (see, e.g., the sequence under accession No. NP_004086.1) biotinylated at the N-terminus.
The target of assay [3] is T1, ERK5. The source holds these as a separate data set.
Target sequence in this assay (Q13164 55-347 limits assumed): as above
Description: as §1, §3
Assay [4] deals with T1, ERK5. Kind of assay: cell-based.
Target sequence in this assay (Q13164 whole entry): as the sequence (Q13164 whole entry) above
Description: as §1, §2

As usually defined, the IC50 is the concentration needed to halve the response being measured.

Like-named read-outs stand apart in the source and are kept apart here.

As for `COC12CC(c3nc4c(C5CCN(C(=O)c6ccc(OC(F)(F)F)cc6)CC5)c(F)cnc4[nH]3)(C1)C2` [Example 426, [4-[6-fluoro-2-(3-methoxy-1-bicyclo[1.1.1]pentanyl)-3H-imidazo[4,5-b]pyridin-7-yl]-1-piperidyl]-[4-(trifluoromethoxy)phenyl]methanone], the IC50 was found to be 10 nM at ERK5 [1] and 69 nM against ERK5 [2].

For `COC12CC(c3nc4c(C5CCN(C(=O)c6ccc(OC(F)(F)F)cc6N)CC5)c(F)cnc4[nH]3)(C1)C2` [Example 428, [2-amino-4-(trifluoromethoxy)phenyl]-[4-[6-fluoro-2-(3-methoxy-1-bicyclo[1.1.1]pentanyl)-3H-imidazo[4,5-b]pyridin-7-yl]-1-piperidyl]methanone], the IC50 against ERK5 [1] worked out at 5 nM; against ERK5 [2] it was 28 nM.

`CN1CCC(c2nc3c(C4CCN(C(=O)c5ccc(OC(F)(F)F)cc5)CC4)ccnc3[nH]2)C1` (single isomer, unassigned) [Example 25, [4-[2-(1-Methylpyrrolidin-3-yl)-3H-imidazo[4,5-b]pyridin-7-yl]-1-piperidyl]-[4-(trifluoromethoxy)phenyl]methanone]: the IC50 on ERK5 [3] turned out to be 148 nM; on ERK5 [4] it was 179 nM.

Take `CC12CC(N)(C1)C(c1nc3c(C4CCN(C(=O)c5ccc(OC(F)(F)F)cc5N)CC4)ccnc3[nH]1)O2` (single isomer, unassigned) [Example 254, [4-[2-[4-amino-1-methyl-2-oxabicyclo[2.1.1]hexan-3-yl]-3H-imidazo[4,5-b]pyridin-7-yl]-1-piperidyl]-[2-amino-4-(trifluoromethoxy)phenyl]methanone]: the values for the IC50 against ERK5 [4] and against ERK5 [2] were 203 nM and 207 nM, respectively.

On to `Nc1c(C(=O)N2CCC(c3ccnc4[nH]c(C5CCOCC5)nc34)CC2)ccc(OC(F)(F)F)c1F` [Example 189, [2-amino-3-fluoro-4-(trifluoromethoxy)phenyl]-[4-(2-tetrahydropyran-4-yl-3H-imidazo[4,5-b]pyridin-7-yl)-1-piperidyl]methanone], for which the IC50 was 37 nM against ERK5 [4] and 36 nM against ERK5 [2].

Regarding `CN1CCC(c2nc3c(C4CCN(C(=O)c5ccc(OC(F)(F)F)cc5)CC4)ccnc3[nH]2)C1` (single isomer, unassigned) [Example 24, [4-[2-(1-Methylpyrrolidin-3-yl)-3H-imidazo[4,5-b]pyridin-7-yl]-1-piperidyl]-[4-(trifluoromethoxy)phenyl]methanone], the IC50 was 150 nM on ERK5 [4] and 148 nM against ERK5 [2].

Turning to `O=C(c1ccc(S(F)(F)(F)(F)F)cc1)N1CCC(c2ccnc3[nH]c(C4CCOC4)nc23)CC1` (single isomer, unassigned) [Example 301, [4-(pentafluoro-λ^6-sulfanyl)phenyl]-[4-[2-[tetrahydrofuran-3-yl]-3H-imidazo[4,5-b]pyridin-7-yl]-1-piperidyl]methanone], the IC50 against ERK5 [4] is 284 nM; against ERK5 [2], 273 nM.

Consider `Nc1cc(OC(F)(F)F)ccc1C(=O)N1CCC(c2ccnc3[nH]c(CC4CCOC4)nc23)CC1` (single isomer, unassigned) [Example 2, [2-Amino-4-(trifluoromethoxy)phenyl]-[4-[2-(tetrahydrofuran-3-ylmethyl)-3H-imidazo[4,5-b]pyridin-7-yl]-1-piperidyl]methanone], for which the values for the IC50 on ERK5 [4] and against ERK5 [2] were 134 nM and 140 nM, respectively.

For the compound `COC12CC(c3nc4c(C5CCN(C(=O)c6ccc(OC(F)(F)F)cc6N)CC5)ccnc4[nH]3)(C1)C2` [Example 150, [2-amino-4-(trifluoromethoxy)phenyl]-[4-[2-(3-methoxy-1-bicyclo[1.1.1]pentanyl)-3H-imidazo[4,5-b]pyridin-7-yl]-1-piperidyl]methanone], the IC50 on ERK5 [4] and on ERK5 [2] was 13 nM throughout.

On to `Nc1cc(S(F)(F)(F)(F)F)ccc1C(=O)N1CCC(c2ccnc3[nH]c(C4CCOC4)nc23)CC1` (single isomer, unassigned) [Example 308, [2-amino-4-(pentafluoro-λ^6-sulfanyl)phenyl]-[4-[2-[tetrahydrofuran-3-yl]-3H-imidazo[4,5-b]pyridin-7-yl]-1-piperidyl]methanone], for which the IC50 against ERK5 [4] came to 99 nM; against ERK5 [2], 97 nM.

For `Nc1cc(OC(F)(F)F)ccc1C(=O)N1CCC(c2c(F)cnc3[nH]c(C45CC(C(F)(F)F)(C4)C5)nc23)CC1` [Example 432, [2-amino-4-(trifluoromethoxy)phenyl]-[4-[6-fluoro-2-[3-(trifluoromethyl)-1-bicyclo[1.1.1]pentanyl]-3H-imidazo[4,5-b]pyridin-7-yl]-1-piperidyl]methanone], the figures for the IC50 against ERK5 [4] and on ERK5 [2] were 16 to 43 nM and 3870 nM, respectively.

The values above are taken from patent US20260022116A1, “IMIDAZOPYRIDINE COMPOUNDS, PREPARATION THEREOF AND THERAPEUTIC USES THEREOF” (SANOFI, priority 2022, published 2026).
